For 63 compounds, melting point and IC50 results are on record in patent US7244727B2, “Fused bicyclic nitrogen-containing heterocycles” (Japan Tobacco Inc., priority 2002, dated 2007).

The target in one data set is T1, human DGAT1 (Homo sapiens, UniProt O75907).
T1 construct: made in house; host or cells: insect cells (sf9, sf21 or High Five) infected with baculovirus; total cell membranes
T1 sequence (O75907 1-488): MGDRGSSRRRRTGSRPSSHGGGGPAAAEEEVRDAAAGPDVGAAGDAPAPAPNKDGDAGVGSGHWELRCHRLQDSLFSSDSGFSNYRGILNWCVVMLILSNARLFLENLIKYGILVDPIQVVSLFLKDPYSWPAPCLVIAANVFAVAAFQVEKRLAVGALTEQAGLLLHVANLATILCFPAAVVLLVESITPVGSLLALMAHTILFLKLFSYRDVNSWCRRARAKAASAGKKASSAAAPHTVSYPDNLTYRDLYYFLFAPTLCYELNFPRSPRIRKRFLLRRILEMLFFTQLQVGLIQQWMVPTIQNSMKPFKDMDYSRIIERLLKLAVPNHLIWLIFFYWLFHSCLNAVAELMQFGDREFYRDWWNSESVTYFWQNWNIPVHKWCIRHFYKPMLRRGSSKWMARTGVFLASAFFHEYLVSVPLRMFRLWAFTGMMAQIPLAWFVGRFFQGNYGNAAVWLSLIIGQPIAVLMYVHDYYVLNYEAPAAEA
Nature of the data set: DGAT Scintillation Proximity Assay (SPA) with membranes of insect cells expressing human flagtag DGAT1. It counts as biochemical. Conditions: read-out: hDGAT1 IC50. Here is the method:
In such an assay human DGAT1 is cloned from a human liver cDNA library. PCR is used to add a restriction site and flag epitope at the most 5′ end and a restriction site at the 3′ end of the sequence. Thereafter, human flagtag (FT) DGAT1 baculovirus may be generated using a Bac-to-Bac Baculovirus Expression System® (Invitrogen). Insect cells (e.g., sf9, sf2 1, or High Five) are infected for 24 to 72 h and collected by centrifugation. Cell pellets are resuspended in homogenization buffer and lysed using a homogenization device, such as a Microfluidizer. Total cell membranes are collected by ultracentrifugation at 45,000 rpm for 1 h.
A small aliquot (0.2 μg/well) of membrane is incubated with 10 μM compound or mercuric chloride (as positive control for inhibition) in the presence of enzyme substrate, dioleoyl glycerol (200 μM) in 384 well plates, final volume 50 gL per well. […] The reaction is stopped by adding Wheat Germ Agglutinin (WGA) SPA beads (0.2 mg) in mercuric chloride. Cell membranes are allowed to couple to the beads overnight. The signal can be measured using, for example, a Chemiluminescence Image Plate Reader (CLIPR) or TopCount device.

For `Nc1ncnc2c1N=C(c1ccc(Br)cc1)CO2`, the melting point was > 200 °C.
Regarding `CC1Oc2ncnc(N)c2N=C1c1ccc(Br)cc1` (centres unmarked), the melting point lay in the range of 222 to 224 °C.
`Cc1nc(N)c2c(n1)OCC(c1ccc(Br)cc1)=N2`: the melting point was > 220 °C.
`Nc1ncnc2c1NC(c1ccc(Br)cc1)CO2` (centres unmarked): the melting point is > 200 °C.
The same measure, in the same setting: to `CC1(C)Oc2ncnc(N)c2N=C1c1ccc(Br)cc1` belongs 201 to 203 °C; to `Cc1nc(N)c2c(n1)OC(C)(C)C(c1ccc([C@H]3CC[C@H](CC(=O)O)CC3)cc1)=N2`, > 250 °C.
On the same count and under the same terms, in the case of `CC1(C)Oc2ncnc(N)c2NC1c1ccc(Br)cc1` (centres unmarked) it was > 220 °C; in that of `CC1(C)Oc2ncnc(N)c2N=C1c1ccc(Cl)cc1`, 210 to 211 °C; in that of `Cc1ccc(C2=Nc3c(N)ncnc3OC2(C)C)cc1`, 161 to 162 °C.
For `CC1(C)Oc2ncnc(N)c2N=C1c1ccc(F)cc1`, the melting point lay within 189 to 190 °C.
Same read-out and setting: to `CC1(C)Oc2ncnc(N)c2N=C1c1ccc(C2CCCCC2)cc1` belongs 186 to 187 °C.
Regarding `CC1(C)Oc2ncnc(N)c2N=C1c1ccc([C@H]2CC[C@H](CC(N)=O)CC2)cc1`, the melting point lay in the range of 224 to 226 °C.
The same measure, in the same setting: in the case of `CC1(C)Oc2ncnc(N)c2N=C1c1ccc([C@H]2CC[C@H](C(=O)O)CC2)cc1` it was > 250 °C; in that of `CC1(C)Oc2ncnc(N)c2N=C1c1ccc([C@H]2CC[C@H](CS(N)(=O)=O)CC2)cc1`, > 250 °C.
Still for that read-out and setting: in the case of `COc1ccc(C2=Nc3c(N)ncnc3OC2(C)C)cc1` it was 183 to 184 °C.
Consider `CC1(C)Oc2ncnc(N)c2N=C1c1ccc(O)cc1`, for which the melting point fell in the range of 245 to 246 °C.
On the same count and under the same terms, in the case of `CC1(C)Oc2ncnc(N)c2N=C1c1ccc(-c2ccccc2)cc1` it was 218 to 219 °C; in that of `CC1(C)Oc2ncnc(N)c2N=C1c1ccc(C2CCC(=O)CC2)cc1`, > 240 °C; in that of `CCCc1ccc(C2=Nc3c(N)ncnc3OC2(C)C)cc1`, 185 to 186 °C.
Still for that read-out and setting: to `CC1(C)Oc2ncnc(N)c2N=C1c1ccc(C(C)(C)C)cc1` belongs 220 °C; to `CCc1ccc(C2=Nc3c(N)ncnc3OC2(C)C)cc1`, 135 to 136 °C.
Compound `CC(C)c1ccc(C2=Nc3c(N)ncnc3OC2(C)C)cc1` yielded a melting point of 175 to 179 °C.
Still for that read-out and setting: in the case of `CCCCc1ccc(C2=Nc3c(N)ncnc3OC2(C)C)cc1` it was 157 to 160 °C; in that of `CC1(C)Oc2ncnc(N)c2N=C1c1ccc([C@H]2CC[C@H](CCC(=O)O)CC2)cc1`, > 250 °C.
On to `CC1(C)Oc2ncnc(N)c2N=C1c1ccc(C2CCC(F)(F)CC2)cc1`, for which the melting point lay in the range of 226 to 227 °C.
Take `CC1(C)Oc2ncnc(N)c2N=C1c1ccc(C2CCC(O)CC2)cc1` (centres unmarked): the melting point is 246 to 248 °C.
On to `CC1(C)Oc2ncnc(N)c2N=C1c1ccc(-c2ccc(CC(=O)O)cc2)cc1`, for which the melting point is > 270 °C.
The same measure, in the same setting: to `CC1(C)Oc2ncnc(N)c2N=C1c1ccc(C(C)(C)C(=O)O)cc1` belongs > 250 °C; to `CC1(C)Oc2ncnc(N)c2N=C1c1ccc([C@H]2CC[C@H](Cc3nn[nH]n3)CC2)cc1`, > 250 °C.
Same read-out and setting: to `CC1(C)Oc2ncnc(N)c2N=C1c1ccccc1` belongs 189 to 190 °C.
For `CC1(C)Oc2ncnc(N)c2N=C1c1ccc(N2CCCCC2)cc1`, the melting point was 191 to 193 °C.
On the same count and under the same terms, to `CC1(C)Oc2ncnc(N)c2N=C1c1ccc(N2CCOCC2)cc1` belongs 214 to 219 °C.
In the case of `Nc1ncnc2c1N=C(c1ccc(F)cc1)CO2` [Example 1-2], the melting point was > 220 °C. Besides, the IC50 on human DGAT1 is > 100 nM.
On the same counts, the results for `Nc1ncnc2c1N=C(c1ccc(Cl)cc1)CO2` [Example 1-3] are > 220 °C and > 100 nM.
On the same counts, the results for `Cc1ccc(C2=Nc3c(N)ncnc3OC2)cc1` [Example 1-4] are 217 to 219 °C and > 100 nM.
Taken in the same sequence, the figures for `CCN(CC)c1ccc(C2=Nc3c(N)ncnc3OC2)cc1` [Example 1-6] were 206 °C (dec.) and > 100 nM.
Take `Nc1ncnc2c1N=C(c1cccc(Br)c1)CO2` [Example 1-7]: the melting point was > 220 °C. Further, the IC50 on human DGAT1 is > 100 nM.
On the same counts, the results for `Nc1ncnc2c1N=C(c1ccc(C(F)(F)F)cc1)CO2` [Example 1-8] are > 220 °C and > 100 nM.
Taken in the same sequence, the figures for `CC(C)c1ccc(C2=Nc3c(N)ncnc3OC2)cc1` [Example 1-9] were 176 to 178 °C and > 100 nM.
As for `Nc1ncnc2c1N=C(c1ccc(-c3ccccc3)cc1)CO2` [Example 1-11], the melting point is > 250 °C. In addition, the IC50 at human DGAT1 is > 100 nM.
Take `COc1ccc(C2=Nc3c(N)ncnc3OC2)cc1` [Example 1-12]: the melting point lay in the range of 191 to 193 °C. For the same compound, at human DGAT1, the half-inhibitory concentration (IC50) is > 100 nM.
Take `Nc1ncnc2c1N=C(c1ccc([N+](=O)[O-])cc1)CO2` [Example 1-13]: the melting point was > 250 °C. The half-inhibitory concentration (IC50) on human DGAT1 is > 100 nM.
On to `Nc1cccc2c1N=C(c1ccc(Br)cc1)CO2` [Example 1-15], for which the melting point was in the range of 75 to 77 °C. Further, the IC50 on human DGAT1 is > 100 nM.
With `Nc1ncnc2c1N=C(c1ccccn1)CO2` [Example 1-16], the melting point was found to be 215 °C. In addition, the half-maximal inhibitory concentration (IC50) at human DGAT1 was > 100 nM.
Taken in the same sequence, the figures for `Nc1ncnc2c1N=C(c1cccnc1)CO2` [Example 1-17] were > 220 °C and > 100 nM.
As for `Nc1ncnc2c1N=C(c1ccncc1)CO2` [Example 1-18], the melting point is > 220 °C. The IC50 on human DGAT1 is > 100 nM.
Compound `Cc1nc(N)c2c(n1)OC(C)(C)C(c1ccc([C@H]3CC[C@H](CN4CCCC(O)C4=O)CC3)cc1)=N2` (some centres unmarked) [Example 2-170] showed a melting point of 228 to 229 °C.
On the same count and under the same terms, in the case of `Cc1nc(N)c2c(n1)OC(C)(C)C(c1ccc([C@H]3CC[C@H](CCc4noc(C(F)(F)F)n4)CC3)cc1)=N2` [Example 2-199] it was 198 to 200 °C; in that of `Cc1nc(N)c2c(n1)OC(C)(C)C(c1ccc([C@H]3CC[C@H](Cc4n[nH]c(=O)[nH]4)CC3)c(Cl)c1)=N2` [Example 6-5], > 300 °C; in that of `Cc1nc(N)c2c(n1)OC(C)(C)C(c1ccc([C@H]3CC[C@H](Cc4noc(=O)[nH]4)CC3)c(Cl)c1)=N2` [Example 6-6], > 282 °C.
The same measure, in the same setting: in the case of `Cc1nc(N)c2c(n1)OC(C)(C)C(c1ccc([C@H]3CC[C@H](CC(=O)O)CC3)c(O)c1)=N2` [Example 6-7] it was > 280 °C.
Take `Cc1nc(N)c2c(n1)OC(C)(C)C(c1ccc(C3CCC(C4(C(=O)O)CC4)CC3)cc1)=N2` (centres unmarked) [Example 10-21]: the IC50 on human DGAT1 is 10 to 100 nM.
For the compound `Cc1nc(N)c2c(n1)OC(C)(C)C(c1ccc([C@H]3CC[C@H](CC(=O)O)CC3)c(C)c1)=N2` [Example 10-22], the half-maximal inhibitory concentration (IC50) on human DGAT1 was 10 to 100 nM.
The same measure, in the same setting: to `CCc1nc(N)c2c(n1)OC(C)(C)C(c1ccc([C@H]3CC[C@H](CC(=O)O)CC3)cc1)N2` (some centres unmarked) [Example 10-23] belongs 10 to 100 nM; to `Cc1nc(N)c2c(n1)OC(C)(C)C(c1ccc3c(c1)CCC31CCC(C3(C(=O)O)CC3)CC1)=N2` (centres unmarked) [Example 10-24], 10 to 100 nM; to `CC1(C)Oc2nc(C(F)(F)F)nc(N)c2N=C1c1ccc2c(c1)CCC21CCC(C2(C(=O)O)CC2)CC1` (centres unmarked) [Example 10-25], 10 to 100 nM.
The same measure, in the same setting: to `CC1(C)Oc2nc(C(F)(F)F)nc(N)c2N=C1c1ccc2c(c1)CCC21CCC(C(C)(C)C(=O)O)CC1` (centres unmarked) [Example 10-26] belongs 10 to 100 nM; to `CCC(C(=O)O)C1CCC(c2ccc(C3=Nc4c(N)nc(C)nc4OC3(C)C)cc2)CC1` (centres unmarked) [Example 10-27], 10 to 100 nM; to `CCC(C(=O)O)C1CCC(c2ccc(C3=Nc4c(N)nc(C(F)(F)F)nc4OC3(C)C)cc2)CC1` (centres unmarked) [Example 10-28], < 10 nM.
The same measure, in the same setting: in the case of `Cc1nc(N)c2c(n1)OC(C)(C)C(c1ccc(CC3CCC(C(=O)O)CC3)cc1)=N2` (centres unmarked) [Example 10-29] it was 10 to 100 nM; in that of `Cc1nc(N)c2c(n1)OC(C)(C)C(c1ccc([C@H]3CC[C@H](C(C)C(=O)O)CC3)cc1)=C2` (some centres unmarked) [Example 10-30], 10 to 100 nM; in that of `CC(C(=O)O)[C@H]1CC[C@H](c2ccc(C3=Cc4c(N)ncnc4OC3(C)C)cc2)CC1` (some centres unmarked) [Example 10-31], 10 to 100 nM.
Regarding `CCC(C(=O)O)C1CCC(c2ccc(C3=Nc4c(N)ncnc4OC3(C)C)cc2)CC1` (centres unmarked) [Example 10], on human DGAT1, the half-inhibitory concentration (IC50) is < 10 nM.
